Source: patent publication US6362328B1, “Assays and probes with enzyme labels” (London Biotechnology Limited, priority 1996, dated 2002)

How the values were obtained:
[1] = biological target: T1, nuclease P1 (Penicillium citrinum, UniProt P24289); test: Effect of p-nitrophenyl phosphate on the activity of nuclease P1; format: biochemical; parameters: purchased Sigma Chemical Company; details: p-nitrophenyl phosphate at concentrations up to approximately 5 mM; FIG. 3
T1 sequence (P24289 1-270): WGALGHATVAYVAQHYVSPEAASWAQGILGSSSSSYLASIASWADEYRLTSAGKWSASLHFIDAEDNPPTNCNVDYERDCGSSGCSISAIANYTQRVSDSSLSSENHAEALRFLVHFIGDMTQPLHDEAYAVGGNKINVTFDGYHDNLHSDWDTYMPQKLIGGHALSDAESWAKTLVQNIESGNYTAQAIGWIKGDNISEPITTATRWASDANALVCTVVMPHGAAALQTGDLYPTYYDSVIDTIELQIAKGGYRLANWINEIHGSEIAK
Description: (§1) The effect of the added p-nitrophenyl phosphate on the background color generation in the absence of nuclease P1 was also noted. This background is due to endogenous “FADPase” in the apoglucose oxidase used in the assay. At concentrations up to approximately 5 mM, added p-nitrophenyl phosphate has no effect on nuclease P1, but reduces the background signal by 80-100% (FIG. 3).

[2] = test system: endogenous "FADPase" in the apoglucose oxidase; test: Effect of p-nitrophenyl phosphate on background color generation in the absence of nuclease P1; format: biochemical; details: p-nitrophenyl phosphate at concentrations up to approximately 5 mM; no nuclease P1; FIG. 3
Description: as §1

[3] = biological target: T1, nuclease P1; details: phosphate 0 to 10 mM; nuclease P1 at pH 6.5, alkaline phosphatase at pH 8.9; FIG. 2
Description: A solution of nuclease P1 standardized according to Example 1 was serially diluted in 50 mM citrate buffer adjusted to pH 6.5 with NaOH. The assay mixture contained 20 μM 3′FADP, 0.1 mM 4-aminoantipyrine, 2 mM DHSA, 1 μg horseradish peroxidase, 0.1 M glucose and 0.1 μM apoglucose oxidase in a total volume of 0.1 ml. The change in absorbance was monitored at 520 nm in a Dynatech MR7000 plate reader fitted with a thermostatically controlled plate holder set to 25° C.

[4] = Standardization of nuclease P1 (coupled NADH assay, absorbance at 340 nm); format: biochemical; details: 22.7 μM solution (1 mg in 1 ml water); 50 mM HEPES pH 7.2; molar extinction coefficient of 6220 for NADH assumed
Description: Nuclease P1 (1 mg; obtained from Sigma Chemical Company, batch no: 107F0799) was dissolved in 1 ml of water to give a concentration of 22.7 μM and stored at 4° C. The activity of this solution was assayed in the following mixture: 0.16 mM NADH, 1 mM ATP, 1 mM PEP, 1 mM MgSO4, 20 mM KCl, 0.5 mM adenosine 3′,5′-bisphosphate, 1 U pyruvate kinase, 1 U lactate dehydrogenase and 1 U myokinase in 50 mM HEPES buffer, pH 7.2, in a total volume of 1 ml.

Which “effect on nuclease P1 activity” value [1] does the source give for `O=[N+]([O-])c1ccc(OP(=O)(O)O)cc1` [p-nitrophenyl phosphate] here?
Its value is “no effect”.

What about the “reduction of background signal” value [2] of the same molecule?
Its value is 80-100%.

For phosphate, which “effect of phosphate on enzyme activity” value [3] is on record?
Its value is “less of an effect on nuclease P1 than on alkaline phosphatase”.

B1: Nuclease P1: enzyme obtained from Sigma Chemical Company, used as enzyme label (protein, UniProt P24289 1-270, looked up)
Nuclease P1: WGALGHATVAYVAQHYVSPEAASWAQGILGSSSSSYLASIASWADEYRLTSAGKWSASLHFIDAEDNPPTNCNVDYERDCGSSGCSISAIANYTQRVSDSSLSSENHAEALRFLVHFIGDMTQPLHDEAYAVGGNKINVTFDGYHDNLHSDWDTYMPQKLIGGHALSDAESWAKTLVQNIESGNYTAQAIGWIKGDNISEPITTATRWASDANALVCTVVMPHGAAALQTGDLYPTYYDSVIDTIELQIAKGGYRLANWINEIHGSEIAK
With B1 as the molecule, how does the “activity of nuclease P1 solution” value [4] read?
The value was 320 U/ml.
